In patent US11123355B2, “Antiviral benzyl-amine phosphodiamide compounds” (Merck Sharp & Dohme Corp., priority 2016, dated 2021):
Like-named read-outs stand apart in the source and are kept apart here.

Columns and labels:
HIV-1 (H9/IIB strain) = test: Multiple Round HIV-1 Infection Assay (Viking Assay) in MT4-GFP cells; type: cell-based; conditions: inhibition of reproductive ratio R0
Procedure, shortened: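 Inhibition of the reproductive ratio R0, derived from the rise in GFP-positive cells between ~48 h and ~72 h post-infection, was fitted by 4-parameter regression to give IC50. Cells infected at MOI ~0.01 were exposed to compound (typically 8.4 μM–0.42 nM final) in 10% or 50% normal human serum.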

[1] = Prodrug Stability Assay in Bio-Relevant Media (FaSSIF with Pancreatin); type: in vitro ADME; conditions: 0.5 mg/mL Pancreatin in FaSSIF, 37° C.; HPLC peak area of prodrug at 5 h divided by that at 0 h
Procedure: Prodrug Stability Assay in Bio-Relevant Media
The following assay was employed to evaluate the stability of the prodrugs in simulated gastrointestinal tract conditions. Preparation of fasted state simulated intestinal fluid (FaSSIF) using Phares SIF Powder was carried out according to protocols from Phare Drug Delivery AG (Baselland, Switzerland). For sample preparation, 10 μL stock solutions (10 mM) of prodrug substance in DMSO was added to 990 μL of 0.5 mg/mL Pancreatin solution (Fisher CAS #8049-47-6) in FaSSIF. Two samples were prepared for each compound. If the sample was a clear solution, it was directly analyzed by HPLC. If the sample was not clear, the sample was diluted with 100% MeCN, maintained at 37° C. and observed 5 h later. If the sample was clear, HPLC analysis was directly performed. If the sample was still not clear, the sample was diluted with 100% ACN and assayed by HPLC. All the samples were vortexed for 3 min and observed before injection. For the diluted samples, the area is multiplied by a dilution factor when the data is analyzed. The analysis was carried out with an Agilent 1100 series HPLC with autosampler. The column was a Poroshell 120 EC-C18, 4.6×50 mm, 2.7 μm. The flow rate was 1.8 mL/min, and the injection volume was 5 or 10 μL. UV detection was in the range 210-400 nm. The mobile phase consisted of solvent A (water plus 10 mM tetrabutylammonium bromide) and solvent B (acetonitrile) with a gradient of: 90% solvent A at 0 min, changing to 95% solvent B over 6 min, maintaining for 1.5 min, then reverting to 90% solvent A over 1.6 min. The HPLC peak area of the prodrug at 5 h was divided by the HPLC peak area of the prodrug at 0 h, to generate the % claimed parent ratio, which is summarized in Table 2 for gastrointestinal (GI) Tract stability.

[2] = MT4-GFP cells infected with HIV-1, 10% normal human serum, read-out: Viking, IC50 (10% NHS)
[3] = MT4-GFP cells infected with HIV-1, 50% normal human serum, read-out: Viking, IC50 (50% NHS)

| Compound | IC50 (HIV-1 (H9/IIB strain); [2]) [nM] | IC50 (HIV-1 (H9/IIB strain); [3]) [nM] | GI Tract stability (%) [1] [%] |
| --- | --- | --- | --- |
| CCCOC(=O)C(C)(C)NP(=O)(CO[C@H](C)Cn1cnc2c(N)ncnc21)N[C@H](C)c1ccc(C#N)cc1 (stereo partly drawn) [Example 31B, propyl 2-(((R)-((((R)-1-(6-amino-9H-purin-9-yl)propan-2-yl)oxy)methyl)(((R)-1-(4-cyanophenyl)ethyl)amino)phosphoryl)ami-no)-2-methylpropanoate and propyl 2-(((S)-((((R)-1-(6-amino-9H-purin-9-yl)propan-2-yl)oxy)methyl)(((R)-1-(4-cyanophenyl)ethyl)amino)phosphoryl)ami-no)-2-methylpropanoate] | 8.8 | 110 | 90.6 |
| CCCOC(=O)C(C)(C)NP(=O)(CO[C@H](C)Cn1cnc2c(N)ncnc21)N[C@H](C)c1ccc(C(F)(F)F)cc1 (stereo partly drawn) [Example 12B, propyl 2-(((R)-((((R)-1-(6-amino-9H-purin-9-yl)propan-2-yl)oxy)methyl)(((R)-1-(4-(trifluoromethyl)phenyl)ethyl)amino)phos-phoryl)amino)-2-methylpropanoate and propyl 2-(((S)-((((R)-1-(6-amino-9H-purin-9-yl)propan-2-yl)oxy)methyl)(((R)-1-(4-(trifluoromethyl)phenyl)ethyl)amino)phos-phoryl)amino)-2-methylpropanoate] | 2.2 | 11 | 99.1 |
| CCCOC(=O)C(C)(C)N[P@@](=O)(CO[C@H](C)Cn1cnc2c(N)ncnc21)NCc1ccc(OC(F)(F)F)cc1 [Example 7A, propyl 2-(((R)-((((R)-1-(6-amino-9H-purin-9-yl)propan-2-yl)oxy)methyl)((4-(trifluoromethoxy)benzyl)amino)phos-phoryl)amino)-2-methylpropanoate and propyl 2-(((S)-((((R)-1-(6-amino-9H-purin-9-yl)propan-2-yl)oxy)methyl)((4-(trifluoromethoxy)benzyl)amino)phos-phoryl)amino)-2-methylpropanoate] | 4.5 | 27 | 96.0 |
| CCCOC(=O)C(C)(C)N[P@](=O)(CO[C@H](C)Cn1cnc2c(N)ncnc21)N(C)[C@H](C)c1ccc(OC(F)(F)F)cc1 [Example 33B, propyl 2-(((R)-((((R)-1-(6-amino-9H-purin-9-yl)propan-2-yl)oxy)methyl)(methyl((R)-1-(4-(trifluoromethoxy)phenyl)ethyl)amino)phos-phoryl)amino)-2-methylpropanoate and propyl 2-(((S)-((((R)-1-(6-amino-9H-purin-9-yl)propan-2-yl)oxy)methyl)(methyl((R)-1-(4-(trifluoromethoxy)phenyl)ethyl)amino)phos-phoryl)amino)-2-methylpropanoate] | 2.2 | 7.1 | 97.2 |
| CC(C)OC(=O)C(C)(C)N[P@@](=O)(CO[C@H](C)Cn1cnc2c(N)ncnc21)N[C@H](C)c1ccc(Cl)cc1 [Example 35B, isopropyl 2-(((R)-((((R)-1-(6-amino-9H-purin-9-yl)propan-2-yl)oxy)methyl)(((R)-1-(4-chlorophenyl)ethyl)amino)phosphoryl)ami-no)-2-methylpropanoate and isopropyl 2-(((S)-((((R)-1-(6-amino-9H-purin-9-yl)propan-2-yl)oxy)methyl)(((R)-1-(4-chlorophenyl)ethyl)amino)phosphoryl)ami-no)-2-methylpropanoate] | 2.9 | 22 | 70.5 |
| CCCOC(=O)C(C)(C)NP(=O)(CO[C@H](C)Cn1cnc2c(N)ncnc21)N[C@H](c1ccc(OC(F)(F)F)cc1)C(F)(F)F (some centres unmarked) [Example 4A] | 3.5 | 29 | 95.8 |
| CCCOC(=O)C(C)(C)N[P@@](=O)(CO[C@H](C)Cn1cnc2c(N)ncnc21)N[C@H](C)c1cccc(F)c1 [Example 9B, propyl 2-(((R)-((((R)-1-(6-amino-9H-purin-9-yl)propan-2-yl)oxy)methyl)(((R)-1-(3-fluorophenyl)ethyl)amino)phosphoryl)ami-no)-2-methylpropanoate and propyl 2-(((S)-((((R)-1-(6-amino-9H-purin-9-yl)propan-2-yl)oxy)methyl)(((R)-1-(3-fluorophenyl)ethyl)amino)phosphoryl)ami-no)-2-methylpropanoate] | 12 | 130 | 90.9 |
| CCCOC(=O)C(C)(C)N[P@@](=O)(CO[C@H](C)Cn1cnc2c(N)ncnc21)N[C@@H](c1cccc(OC)c1)C(F)(F)F [Example 28B, propyl 2-(((R)-((((R)-1-(6-amino-9H-purin-9-yl)propan-2-yl)oxy)methyl)(((S)-2,2,2-trifluoro-1-(3-methoxyphenyl)ethyl)amino)phosphoryl)a-mino)-2-methylpropanoate and propyl 2-(((S)-((((R)-1-(6-amino-9H-purin-9-yl)propan-2-yl)oxy)methyl)(((S)-2,2,2-trifluoro-1-(3-methoxyphenyl)ethyl)amino)phosphoryl)a-mino)-2-methylpropanoate] | 17 | 120 |  |
| CCCOC(=O)C(C)(C)NP(=O)(CO[C@H](C)Cn1cnc2c(N)ncnc21)N[C@@H](C)c1ccc(Cl)cc1C (stereo partly drawn) [Example 30A, propyl 2-(((R)-((((R)-1-(6-amino-9H-purin-9-yl)propan-2-yl)oxy)methyl)(((S)-1-(4-chloro-2-methylphenyl)ethyl)amino)phosphoryl)ami-no)-2-methylpropanoate and propyl 2-(((S)-((((R)-1-(6-amino-9H-purin-9-yl)propan-2-yl)oxy)methyl)(((S)-1-(4-chloro-2-methylphenyl)ethyl)amino)phosphoryl)ami-no)-2-methylpropanoate] | 24 | 350 |  |
| propyl 2-(((R)-((((R)-1-(6-amino-9H-purin- 9-yl)propan-2-yl)oxy)methyl)(((R)-1-(4- cyanophenyl)-2,2,2- trifluoroethyl)amino)phosphoryl)amino)-2- methylpropanoate and propyl 2-(((S)-((((R)-1-(6-amino-9H-purin- 9-yl)propan-2-yl)oxy)methyl)(((R)-1-(4- cyanophenyl)-2,2,2- trifluoroethyl)amino)phosphoryl)amino)-2- methylpropanoate [Example 23A] | 6.1 | 37 |  |
| CCCOC(=O)C(C)(C)NP(=O)(CO[C@H](C)Cn1cnc2c(N)ncnc21)N[C@H](C)c1ccccc1OC (stereo partly drawn) [Example 20B, propyl 2-(((R)-((((R)-1-(6-amino-9H-purin-9-yl)propan-2-yl)oxy)methyl)(((R)-1-(2-methoxyphenyl)ethyl)amino)phosphoryl)a-mino)-2-methylpropanoate and propyl 2-(((S)-((((R)-1-(6-amino-9H-purin-9-yl)propan-2-yl)oxy)methyl)(((R)-1-(2-methoxyphenyl)ethyl)amino)phosphoryl)a-mino)-2-methylpropanoate] | 9.5 | 53 |  |
